Test results published in US4740233A, “Substituted 1,2,4-triazolo[1,5-a]-pyrimidine-2-sulfonamides and compositions and methods of controlling undesired vegetation and suppressing the nitrification of ammonium nitrogen in soil” (The Dow Chemical Company, priority 1986, dated 1988).

Legend:
corn = assay: Postemergent control of plant species; type: in vivo, Zea mays; details: Zea mays, post-emergence, 336 h, read-out: percent postemergent control
Summary of the method: (§1)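 Foliar spray, 2-4 leaf stage, greenhouse. Formulation: acetone solution (2x final conc.) mixed 1:1 with water + 0.1% surface active agent. ~2 wk hold, watered as needed. Readout = % growth reduction vs untreated same-species controls.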

crabgrass = assay: Postemergent control of plant species; type: in vivo, Digitaria spp.; details: Digitaria sanguinalis, post-emergence, 336 h, read-out: percent postemergent control
Summary of the method: as §1

cocklebur = assay: Postemergent control of plant species; type: in vivo, Xanthium spp.; details: Xanthium strumarium, post-emergence, 336 h, read-out: percent postemergent control
Method: In representative operations, each compound to be utilized in a series of tests is dissolved in acetone to one-half of the final volume (twice the final concentration) to be used and the acetone solution in each case is admixed with an equal volume of water containing 0.1 percent by weight of surface active material. The compositions, generally in the nature of an emulsion, were employed to spray separate respective plant species which had been grown to a 2-4 leaf stage in soil of good nutrient content in a greenhouse. The various beds were positioned side by side and exposed to substantially identical conditions of temperature and light. Each bed was maintained so as to prevent any interaction with test compounds in different seed beds. Other plants were left untreated to serve as controls. After treatment, the plants were maintained for about two weeks under greenhouse conditions conducive for good plant growth and watered as necessary. Control refers to the reduction in growth compared to the observed results of the same untreated species.

rice = assay: Postemergent control of plant species; type: in vivo, Oryza sativa; details: Oryza sativa, post-emergence, 336 h, read-out: percent postemergent control
Summary of the method: as §1

barnyardgrass = assay: Postemergent control of plant species; type: in vivo, Echinochloa crusgalli; details: Echinochloa crus-galli, post-emergence, 336 h, read-out: percent postemergent control
Summary of the method: as §1

sorghum = assay: Postemergent control of plant species; type: in vivo, Sorghum vulgare; details: Sorghum, post-emergence, 336 h, read-out: percent postemergent control
Summary of the method: as §1

pigweed = assay: Postemergent control of plant species; type: in vivo, Amaranthus spp.; details: Amaranthus retroflexus, post-emergence, 336 h, read-out: percent postemergent control
Summary of the method: as §1

velvetleaf = assay: Postemergent control of plant species; type: in vivo, Abutilon theophrasti; details: Abutilon theophrasti, post-emergence, 336 h, read-out: percent postemergent control
Summary of the method: as §1

wheat = assay: Postemergent control of plant species; type: in vivo, Triticum aestivum; details: Triticum aestivum, post-emergence, 336 h, read-out: percent postemergent control
Summary of the method: as §1

jimsonweed = assay: Postemergent control of plant species; type: in vivo, Datura stramonium; details: Datura stramonium, post-emergence, 336 h, read-out: percent postemergent control
Summary of the method: as §1

soybean = assay: Postemergent control of plant species; type: in vivo, Glycine max.; details: Glycine max, post-emergence, 336 h, read-out: percent postemergent control
Summary of the method: as §1

wild oats = assay: Postemergent control of plant species; type: in vivo, Avena fatua; details: Avena fatua, post-emergence, 336 h, read-out: percent postemergent control
Summary of the method: as §1

yellow foxtail = assay: Postemergent control of plant species; type: in vivo, Setaria lutescens; details: Setaria, post-emergence, 336 h, read-out: percent postemergent control
Summary of the method: as §1

rape = assay: Postemergent control of plant species; type: in vivo, Brassica napus; details: Brassica napus, post-emergence, 336 h, read-out: percent postemergent control
Summary of the method: as §1

[1] = test system: nitrification of ammonium nitrogen; assay: Suppression of nitrification of ammonium nitrogen in soil; details: 27° C.
Summary of the method: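 Soil (20 g) moistened to its 1/3 bar tension value, mixed with test chemical and incubated sealed for two weeks at 27° C. Nitrate extracted with ammonium sulfate solution and measured by nitrate-specific ion electrode; value given as % NH4-N remaining.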

cotton = assay: Postemergent control of plant species; type: in vivo, Gossypium spp.; details: Gossypium hirsutum, post-emergence, 336 h, read-out: percent postemergent control
Summary of the method: as §1

johnson grass = assay: Postemergent control of plant species; type: in vivo, Sorghum halepense; details: Sorghum halepense, post-emergence, 336 h, read-out: percent postemergent control
Summary of the method: as §1

annual morning glory = assay: Postemergent control of plant species; type: in vivo, Ipomoea spp.; details: Ipomoea, post-emergence, 336 h, read-out: percent postemergent control
Summary of the method: as §1

sugar beet = assay: Postemergent control of plant species; type: in vivo, Beta saccharifera; details: Beta vulgaris, post-emergence, 336 h, read-out: percent postemergent control
Summary of the method: as §1

yellow nutsedge = assay: Postemergent control of plant species; type: in vivo, Cyperus esculentus; details: Cyperus, post-emergence, 336 h, read-out: percent postemergent control
Summary of the method: as §1

| SMILES | plant injury at 500 ppm (corn) | pest or weed control at 500 ppm (crabgrass) | pest or weed control at 500 ppm (cocklebur) | plant injury at 500 ppm (rice) | pest or weed control at 500 ppm (barnyardgrass) | plant injury at 500 ppm (sorghum) | pest or weed control at 500 ppm (pigweed) | pest or weed control at 500 ppm (velvetleaf) | plant injury at 500 ppm (wheat) | pest or weed control at 500 ppm (jimsonweed) | plant injury at 500 ppm (soybean) | pest or weed control at 500 ppm (wild oats) | pest or weed control at 500 ppm (yellow foxtail) | plant injury at 500 ppm (rape) | % NH4-N Remaining After 2 Weeks Incubation ([1]; 0.06 ppm) | plant injury at 500 ppm (cotton) | pest or weed control at 500 ppm (johnson grass) | pest or weed control at 500 ppm (annual morning glory) | plant injury at 500 ppm (sugar beet) | pest or weed control at 500 ppm (yellow nutsedge) | also measured |
| --- | --- | --- | --- | --- | --- | --- | --- | --- | --- | --- | --- | --- | --- | --- | --- | --- | --- | --- | --- | --- | --- |
| Cc1cc(C)n2nc(S(=O)(=O)Nc3c(C)nn(C)c3C(F)(F)F)nc2n1 [Compound 247] | 0% | 0% | 20% | 0% | 0% | 0% | 70% | 40% | 0% | 20% | 70% | 0% | 0% | 70% | 58% | 0% | 0% | 0% | 70% | 0% | % NH4-N Remaining After 2 Weeks Incubation ([1]; 0.25 ppm): 47%; % NH4-N Remaining After 2 Weeks Incubation ([1]; 1 ppm): 58%; % NH4-N Remaining After 2 Weeks Incubation ([1]; 4 ppm): 82% |
| Cc1cc(C)n2nc(S(=O)(=O)Nc3c(Cl)cccc3CO)nc2n1 [Compound 93] | 0% | 0% | 80% | 0% | 0% | 0% | 70% | 20% | 0% | 80% | 90% | 0% | 0% | 70% | 79% | 0% | 0% | 0% | 70% | 15% | % NH4-N Remaining After 2 Weeks Incubation ([1]; 0.25 ppm): 57%; % NH4-N Remaining After 2 Weeks Incubation ([1]; 1 ppm): 64%; % NH4-N Remaining After 2 Weeks Incubation ([1]; 4 ppm): 89% |
| CCOc1cnc2nc(S(=O)(=O)Nc3ccccc3C(F)(F)F)nn2c1 [Compound 201] | 0% | 0% | 80% | 0% | 0% | 0% | 90% | 60% | 0% | 70% | 0% | 0% | 0% | 20% | 0% | 0% | 0% | 0% | 50% | 0% | % NH4-N Remaining After 2 Weeks Incubation ([1]; 0.25 ppm): 11%; % NH4-N Remaining After 2 Weeks Incubation ([1]; 1 ppm): 56%; % NH4-N Remaining After 2 Weeks Incubation ([1]; 4 ppm): 67% |
| Cc1cc(C)n2nc(S(=O)(=O)Nc3c(C)ccc(Cl)c3Cl)nc2n1 [Compound 74] | 0% | 0% | 100% | 0% | 70% | 80% | 70% | 100% | 0% | 90% | 80% | 0% | 60% | 100% |  | 70% | 50% | 80% | 100% | 95% |  |
| COC(=O)c1ccc(Cl)c(NS(=O)(=O)c2nc3nc(C)cc(C)n3n2)c1Cl [Compound 82] | 0% | 0% | 85% | 0% | 0% | 0% | 100% | 85% | 0% | 90% | 85% | 0% | 0% | 100% |  | 85% | 0% | 85% | 95% | 0% |  |
| COC(=O)c1c(NS(=O)(=O)c2nc3nc(C)ccn3n2)c(C)nn1C [Compound 248] | 0% | 0% | 0% | 50% | 0% | 80% | 0% | 100% | 0% | 0% | 40% | 0% | 0% | 100% |  | 50% | 0% | 0% | 75% | 0% |  |
| Cc1cc(C)n2nc(S(=O)(=O)Nc3c(Cl)ccc4ccccc34)nc2n1 [Compound 243] | 75% | 0% | 100% | 45% | 70% | 75% | 80% | 90% | 20% | 95% | 85% | 0% | 75% | 100% |  | 80% | 80% | 80% | 95% | 95% |  |
| Cc1ccn2nc(S(=O)(=O)Nc3c(Cl)ccc4ccccc34)nc2n1 [Compound 244] | 40% | 40% | 100% | 40% | 40% | 90% | 100% | 100% | 20% | 100% | 45% | 0% | 95% | 100% |  | 100% | 80% | 90% | 100% | 90% |  |
